Literature values in patent publication US12462914B2, “Systems and methods for dispensing a statin medication over the counter” (ASTRAZENECA UK LIMITED, priority 2016, dated 2025).

Details: co-administration of warfarin with a single oral dose of atorvastatin

- effect on the pharmacokinetics of atorvastatin: no significant effect
Structure (SMILES): CC(C)c1c(C(=O)Nc2ccccc2)c(-c2ccccc2)c(-c2ccc(F)cc2)n1CC[C@@H](O)C[C@@H](O)CC(=O)O [atorvastatin]
